Among the test systems are A498; NCI-H522; SF-268; HL-60; UO-31; M14; EKVX; A549; HT-29; HCT-15; SK-MEL-5; HCT-116; OVCAR-5; K562; RXF 393; SK-OV-3; KM12; OVCAR-4; UACC-257; U-251.
Holding throughout (experiment): DTP human tumour cell line panel, 48 h

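Cultured in 96-well plates, cells were exposed to test compound for 48 hours across five concentrations. At the GI50, growth is halved.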 The source made the active and inactive calls. No stated cut-off is given here; in the data, active = GI50 up to about 1.1 µM and inactive = higher.

This note sets out measurements from ChEMBL document CHEMBL1201862, “PubChem BioAssay data set” (2004).

As to `COc1cc(S(=O)(=O)Nc2ccc(-c3csc(N4C(=O)C(C)SC4c4cccc(Oc5ccccc5)c4)n3)cc2)ccc1Cl` (centres undefined), the GI50 with A498 is 27.4 µM (inactive); in the test on NCI-H522, 29.8 µM (inactive); with SF-268, 26.7 µM (inactive); in the test on HL-60, 27.2 µM (inactive); with UO-31, 64.6 µM (inactive); with M14, 34.7 µM (inactive). In addition, the GI50 in the test with EKVX was 53.2 µM (inactive); with A549 it was > 100 µM (inactive); with HT-29, 35.4 µM (inactive); in the test on HCT-15, 36.9 µM; in the test with SK-MEL-5 it was 27.5 µM (inactive); in the test with HCT-116, 34.8 µM (inactive). Besides, the GI50 in the test with OVCAR-5 is 83.2 µM (inactive); in the test on K562, 36.5 µM (inactive); in the test with RXF 393, 17.3 µM (inactive); with SK-OV-3, 52.6 µM (inactive); in the test with KM12 it was 34.5 µM (inactive).

As to `COC(=O)/C=C\n1nc(Br)c(=O)[nH]c1=O`, the GI50 in the test with A498 was > 100 µM (inactive); with NCI-H522 it was 35.1 µM (inactive); in the test with SF-268, > 100 µM (inactive); in the test on HL-60, 66.4 µM (inactive); in the test with UO-31, > 100 µM (inactive); in the test with M14 it was > 100 µM (inactive). Besides, the GI50 in the test with EKVX is > 100 µM (inactive); in the test with OVCAR-4, > 100 µM (inactive); with A549 it was > 100 µM (inactive); in the test on HT-29, > 100 µM (inactive); with HCT-15 it was 85.7 µM; in the test with UACC-257, > 100 µM (inactive). In addition, the GI50 in the test with U-251 was > 100 µM (inactive); in the test on SK-MEL-5 it was > 100 µM (inactive); in the test on OVCAR-5 it was > 100 µM (inactive); with K562 it was > 100 µM (inactive); with RXF 393, 83.9 µM (inactive); with KM12, > 100 µM (inactive).

For the molecule `O=S(O)c1cc(Cl)cc(Cl)c1O`, the GI50 in the test with A498, in the test on NCI-H522, in the test with SF-268, in the test on HL-60, in the test with UO-31 and with M14 was > 100 µM (inactive) throughout. The GI50 in the test with EKVX, in the test on OVCAR-4, with HT-29, with UACC-257, in the test on U-251 and with HCT-116 was > 100 µM (inactive) each time. For the same molecule, the GI50 in the test on OVCAR-5, in the test on K562, in the test on RXF 393, with SK-OV-3 and with KM12 was > 100 µM (inactive) throughout.

Turning to `O=S(O)c1cc(Cl)cc(Cl)c1OCc1ccccc1`, the GI50 in the test with A498, with NCI-H522, with SF-268, with HL-60, with UO-31 and in the test with M14 was > 100 µM (inactive) each time. In addition, the GI50 in the test with EKVX, with OVCAR-4, in the test on HT-29, in the test with UACC-257, in the test with U-251 and in the test with HCT-116 was > 100 µM (inactive) in each case. For the same molecule, the GI50 in the test with OVCAR-5, in the test on K562, in the test on RXF 393, with SK-OV-3 and in the test on KM12 was > 100 µM (inactive) in each case.

What is called GI50 is the concentration giving 50% growth inhibition.
